Measured values: US20260265256A1 (IMPACT THERAPEUTICS (SHANGHAI), INC., priority 2023, published 2026)

Legend:
MDA-MB-436 cells = test: Growth inhibition assay against BRCA mutant human breast cancer MDA-MB-436 cell line (CCK-8, 7 days); assay type: cell-based; conditions: 168 h, MDA-MB-436, 7 days, read-out: IC50 (nM), proliferation of human breast cancer cells MDA-MB-436
Description: The cells were cultured in complete medium (DMEM medium+10% FBS+Insulin+glutathione). When the confluence reached about 80%, cells were digested and gently dispensed from the bottom of the dish with a 1 mL pipette. Cell suspension was collected and centrifuged at 500 rpm for 3 min. The supernatant was discarded, and the cell pellet were re-suspended in complete medium. The cells were seeded into a culture dish at an appropriate proportion, and then cultured in a 5% CO2 incubator at 37° C. The assay was carried out when the cells were in optimum condition and the confluence was reached 80%. Cells in the logarithmic growth phase were taken to centrifugate, and the culture supernatant was removed. The cells were resuspended in refresh complete medium and counted. The resuspended cells were seeded at 3000/well in a 96-well plate and incubated at 37° C., 5% CO2 incubator overnight. […] The solution was mixed by oscillation. 0.10% DMSO was used as the control.
The next day, the 96-well plate inoculated with cells was taken out from the incubator, and the culture supernatant was removed. Then fresh medium of 195 uL/well and 5 μL/well of 40× test compound solution as mentioned above were added into the 96 well plate, respectively. Finally, the plate was incubated for 7 days in a 37° C. 5% CO2 incubator. The medium containing compound was changed on the fourth day. After 7 days, 20 μL of CCK-8 was added to each well and shaken gently, then was cultured for 4 hours. The plate was shaken for 5 min after incubation, the absorbance values of 450 nm or 650 nm wavelengths were recorded respectively (OD=absorbance value of 450 nm−absorbance value of 650 nm) by using the multifunction readout instrument.
Data were analyzed by software GraphPad Prism 6.0. The inhibitory activity of compounds on cell proliferation was plotted using cell survival rate against the compound concentration as coordinates. Cell survival rate %=(ODcompound−ODbackground)/(ODDMSO−ODbackground)×100.
Table 2 summarizes the inhibitory effect data (IC50) of the compounds on the proliferation of human breast cancer cells MDA-MB-436.

PDE3A = target: T1, PDE3A (Homo sapiens, UniProt Q14432); test: PDE3A fluorescence polarization (FP) assay; assay type: biochemical; conditions: 2 nM PDE3A, 0.2 μM FAM-cAMP, read-out: IC50 (μM), PDE3A enzyme activity
T1 construct: purchased Sino Biological 11908-H20B1
Description: A PDE3A fluorescence polarization (FP) assay in a multi-step format was performed using black, round bottom 384-well plates (Corning, 4514). The testing compounds were serially diluted from stock solutions to 11 concentrations with a 3-fold dilution factor using DMSO. Fifty nL of compound dilutions was mixed with 5 μL of reaction buffer (10 mM Tris-HCl, pH 7.2, 10 mM MgCl2, 0.05% NaN3, 0.1% phosphate-free BSA) containing 0.2 μM FAM-cAMP (BPS, 60200) and 2 nM PDE3A (Sino Biological, 11908-H20B1) enzyme, and incubated for 60 min at 25° C. Afterwards, 15 μL binding agent mixture (Molecular Devices, R8124) was added to each well and the plate was incubated for 60 min at 25° C. The plate was loaded to a BMG PHERAstar FSX to read Fluorescence Polarization (FP) values at a setting of: Ex: 485 nm and Em: 520 nm. Emission light intensity with polarizers parallel (Em|) and emission light intensity with polarizers perpendicular (Em⊥) were recorded. The Polarization (mP) values were calculated using the following formula: mP=(SignalEm|−SignalEm⊥)/(SignalEm|+SignalEm⊥).
Data analysis: • 1) The inhibition % of a compound dose is calculated as:
[formula] • wherein mPMin and mPMax refer to the polarization readings in the condition of substrate only and substrate+enzyme, respectively. • 2) The IC50 values were calculated from non-linear curve fitting using following regression equation using a commercial curve fitting software GraphPad Prism 9.2.0.
wherein X refers to Log of compound concentration and Y refers to % Inhibition.
Table 3 summarize the inhibitory effects of compounds on PDE3A enzyme activity (IC50).

[1] = target: recombinant poly(ADP-ribose) polymerase 2 (PARP2) (Homo sapiens, UniProt Q9UGN5); test: PARP2 chemiluminescent assay; assay type: biochemical; conditions: PARP2 enzyme activity, chemiluminescence, 40 ng enzyme/well
Description: The solution of recombinant poly(ADP-ribose) polymerase 1 and 2 (PARP1 and PARP2) (40 ng enzyme/well) and the compounds to be tested were mixed, respectively. The solutions were added to a 96-well plate coated with histone mixture, incubated at room temperature for 1 h, then 50 μL 0.3 ng/mL Streptavidin-HRP was added to each well. The plates were incubated for 30 minutes at room temperature. Finally, the plates were treated with streptavidin-HRP followed by addition of the ELISA ECL substrate to produce chemiluminescence that can be measured using a chemiluminescence reader. Inhibition of the tested compound to PARP1/2 enzyme activity was calculated according to the following formula. [formula] IC50 value is obtained by fitting the s-shaped dose response curve equation by using XL Fit software.

T1 sequence (Q14432 669-1141 limits assumed): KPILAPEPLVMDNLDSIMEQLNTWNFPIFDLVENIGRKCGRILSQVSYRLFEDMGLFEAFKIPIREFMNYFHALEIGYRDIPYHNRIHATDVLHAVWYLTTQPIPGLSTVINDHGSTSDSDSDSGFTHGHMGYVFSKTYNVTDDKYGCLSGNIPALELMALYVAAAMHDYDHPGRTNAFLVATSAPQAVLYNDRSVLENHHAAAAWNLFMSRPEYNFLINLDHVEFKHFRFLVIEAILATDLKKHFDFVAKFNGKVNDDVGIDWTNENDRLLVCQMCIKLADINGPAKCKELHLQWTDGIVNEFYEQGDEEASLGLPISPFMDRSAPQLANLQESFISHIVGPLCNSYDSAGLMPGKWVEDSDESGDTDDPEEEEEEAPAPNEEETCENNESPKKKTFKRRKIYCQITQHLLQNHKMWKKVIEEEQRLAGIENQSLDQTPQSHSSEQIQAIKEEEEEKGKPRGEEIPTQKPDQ
Sequence of recombinant poly(ADP-ribose) polymerase 2 (PARP2) (Q9UGN5 whole entry): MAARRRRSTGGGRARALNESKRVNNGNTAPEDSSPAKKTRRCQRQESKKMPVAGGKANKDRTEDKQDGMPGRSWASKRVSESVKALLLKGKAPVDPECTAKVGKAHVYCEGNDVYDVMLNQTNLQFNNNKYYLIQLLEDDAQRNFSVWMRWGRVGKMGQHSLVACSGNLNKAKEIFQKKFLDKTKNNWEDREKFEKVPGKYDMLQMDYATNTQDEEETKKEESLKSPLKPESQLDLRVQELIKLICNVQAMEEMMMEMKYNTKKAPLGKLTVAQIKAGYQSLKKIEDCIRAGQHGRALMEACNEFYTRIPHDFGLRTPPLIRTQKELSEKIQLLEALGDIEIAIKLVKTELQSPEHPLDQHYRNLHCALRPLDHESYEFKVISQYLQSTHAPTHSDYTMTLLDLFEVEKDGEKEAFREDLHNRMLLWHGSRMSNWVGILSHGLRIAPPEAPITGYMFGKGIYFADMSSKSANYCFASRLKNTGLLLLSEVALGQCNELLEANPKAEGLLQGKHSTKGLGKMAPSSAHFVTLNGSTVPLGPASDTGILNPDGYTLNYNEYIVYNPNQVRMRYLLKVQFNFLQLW

Row | SMILES | IC50 (MDA-MB-436 cells) [nM] | IC50 (PDE3A) [µM] | IC50 [1] [nM]
1 | CNC(=O)c1ccc(-n2cc3c(n2)CN(Cc2ccc4c([nH]c(=O)c5c(C)cnn54)c2F)C3)cn1 [Example 1-1, 5-(5-((6-fluoro-3-methyl-4-oxo-4,5-dihydropyrazolo[1,5-a]quinoxalin-7-yl)methyl)-5,6-dihydropyrrolo[3,4-c]pyrazol-2(4H)-yl)-N-methylpicolinamide] | 2.13 | > 30 | –
2 | Cc1cnn2c1c(=O)[nH]c1c(F)c(CN3Cc4cn(-c5ccc(C(=O)NC6CC6)nc5)nc4C3)ccc12 [Example 8, 5-(5-((6-fluoro-3-methyl-4-oxo-4,5-dihydropyrazolo[1,5-a]quinoxalin-7-yl)methyl)-5,6-dihydropyrrolo[3,4-c]pyrazol-2(4H)-yl)-N-cyclopropylpicolinamide] | 4.11 | > 30 | –
3 | CNC(=O)c1ccc(-n2cc3c(n2)CCN(Cc2ccc4c([nH]c(=O)c5c(C)cnn54)c2F)C3)c(C)n1 [Example 11, 5-(5-((6-fluoro-3-methyl-4-oxo-4,5-dihydropyrazolo[1,5-a]quinoxalin-7-yl)methyl)-4,5,6,7-tetrahydro-2H-pyrazolo[4,3-c]pyridin-2-yl)-N,6-dimethylpicolinamide] | > 100 | > 30 | –
4 | CNC(=O)c1ccc(-n2cc3c(n2)CCN(Cc2ccc4c([nH]c(=O)c5c(C)cnn54)c2F)C3)c(F)n1 [Example 12, 5-(5-((6-fluoro-3-methyl-4-oxo-4,5-dihydropyrazolo[1,5-a]quinoxalin-7-yl)methyl)-4,5,6,7-tetrahydro-2H-pyrazolo[4,3-c]pyridin-2-yl)-6-fluoro-N-methylpicolinamide] | > 100 | > 30 | –
5 | CNC(=O)c1ccc(-n2cc3c(n2)CN(Cc2ccc4c([nH]c(=O)c5c(F)cnn54)c2F)C3)c(C)n1 [Example 14, 5-(5-((3,6-difluoro-4-oxo-4,5-dihydropyrazolo[1,5-a]quinoxalin-7-yl)methyl)-5,6-dihydropyrrolo[3,4-c]pyrazol-2(4H)-yl)-N,6-dimethylpicolinamide] | 5.06 | > 30 | –
6 | CCNC(=O)c1ccc(-n2cc3c(n2)CN(Cc2ccc4c([nH]c(=O)c5c(F)cnn54)c2F)C3)cn1 [Example 18, 5-(5-((3,6-difluoro-4-oxo-4,5-dihydropyrazolo[1,5-a]quinoxalin-7-yl)methyl)-5,6-dihydropyrrolo[3,4-c]pyrazol-2(4H)-yl)-N-ethylpicolinamide] | 0.59 | > 30 | –
7 | CNC(=O)c1ccc(-n2cc3c(n2)CN(Cc2ccc4c([nH]c(=O)c5cc(F)nn54)c2F)C3)cn1 [Example 27, 5-(5-((2,6-difluoro-4-oxo-4,5-dihydropyrazolo[1,5-a]quinoxalin-7-yl)methyl)-5,6-dihydropyrrolo[3,4-c]pyrazol-2(4H)-yl)-N-methylpicolinamide] | 1.44 | > 30 | –
8 | CNC(=O)c1ccc(-n2cc3c(c2)CN(Cc2ccc4c([nH]c(=O)c5c(C)cnn54)c2F)C3)cn1 [Example 39, 5-(5-((6-fluoro-3-methyl-4-oxo-4,5-dihydropyrazolo[1,5-a]quinoxalin-7-yl)methyl)-5,6-dihydropyrrolo[3,4-c]pyrrol-2(4H)-yl)-N-methylpicolinamide] | 1.82 | > 30 | –
9 | CNC(=O)c1ccc(-n2cc3c(n2)CN(Cc2ccc4c([nH]c(=O)n5cc(C)nc45)c2F)C3)cn1 [Example 49, 5-(5-((7-fluoro-2-methyl-5-oxo-5,6-dihydroimidazo[1,2-c]quinazolin-8-yl)methyl)-5,6-dihydropyrrolo[3,4-c]pyrazol-2(4H)-yl)-N-methylpicolinamide] | 0.71 | > 30 | –
10 | CNC(=O)c1ccc(-n2cc3c(c2)CN(Cc2ccc4c([nH]c(=O)c5c(C)cnn54)c2F)C3)c(F)n1 [Example 63, 6-fluoro-5-(5-((6-fluoro-3-methyl-4-oxo-4,5-dihydropyrazolo[1,5-a]quinoxalin-7-yl)methyl)-5,6-dihydropyrrolo[3,4-c]pyrrol-2(4H)-yl)-N-methylpicolinamide] | 0.85 | – | > 10000
